Test results: patent US8247211B2, “Glycopeptide antibiotics” (American Cyanamid Company, priority 2001, dated 2012)
In brackets after ≈: the same amount, converted by molar mass.

Tests used:
Test in all cases: In vitro antibacterial evaluation: minimum inhibitory concentration (MIC), broth dilution method
Assay type in all cases: cell-based
Enterococcus sp. = conditions: broth dilution, 5×10^5 CFU/mL, 18 hours at 35° C.
Experimental: (§1) The minimum inhibitory concentration (MIC), the lowest concentration of the antibiotic which inhibits growth of the test organism, is determined by the broth dilution method using Muller-Hinton II […] (Baltimore Biological Laboratories) following the recommendations of the National Committee for Clinical Laboratory Standards [Methods for dilution antimicrobial susceptibility tests for bacteria that grow aerobically, approved standard M7-A2, National Committee for Clinical Laboratory Standards, Villanova, Pa].
(§2) An inoculum level of 5×10^5 CFU/mL, and a range of antibiotic concentrations (64-0.06 μg/mL) is used. […] The test organisms include a spectrum of Gram-positive bacteria comprised of Staphylococcus sp., Streptococcus sp. and Enterococcus sp. These organisms include recent clinical isolates that are resistant to methicillin, penicillin and/or vancomycin.

Escherichia coli = conditions: 5×10^5 CFU/mL, 18 hours at 35° C.
Experimental: as §1, §2

Staphylococcus sp. = conditions: for MIC Staphylococcus aureus (ATCC 29213): strain ATCC 29213; for MIC Staphylococcus aureus (GC 1131): strain GC 1131; for MIC Staphylococcus aureus (GC 3051): strain GC 3051; for MIC Staphylococcus aureus (GC 3053): strain GC 3053; for MIC Staphylococcus aureus (GC 4541): strain GC 4541; for MIC Staphylococcus aureus (GC 4542): strain GC 4542; for MIC Staphylococcus aureus (GC 4544): strain GC 4544; for MIC Staphylococcus aureus (GC 4545): strain GC 4545
Experimental: as §1, §2

Streptococcus sp. = conditions: broth dilution, 5×10^5 CFU/mL, 18 hours at 35° C.
Experimental: as §1, §2

[1] = broth dilution, 5×10^5 CFU/mL, 18 hours at 35° C.
[2] = broth dilution, 18 hours at 35° C.

SMILES: CC(c1ccccc1)C1NC(=O)CNC(=O)C(CO)NC(=O)C(C(O)C2CNC(=N)N2C2OC(CO)C(O)C(O)C2O)NC(=O)C(C(O)C2CNC(=N)N2)NC(=O)C(Cc2ccc(OC3OC(CO)C(OC4OC5COC(c6cccc(O)c6)OC5C(O)C4O)C(O)C3O)cc2)NC1=O (stereo not drawn) [Example 136, Cyclo[glycyl-β-methylphenylalanyl-O-[4-O-[4,6-O-(3-hydroxybenzylidene)hexopyranosyl]-hexopyranosyl]tyrosyl-3-(2-iminoimidazolidin-4-yl)seryl-3-(3-hexopyranosyl-2-iminoimidazoliclin-4-yl)serylseryl]]
- MIC Enterococccus avium (GC 4558) (Enterococcus sp.): 64 µg/mL (≈ 45.7 µM)
- MIC Enterococccus faecalis (ATCC 29212) (Enterococcus sp.): >64 µg/mL
- MIC Enterococccus faecalis (GC 2691) (Enterococcus sp.): >64 µg/mL
- MIC Enterococccus faecalis (GC 3059) (Enterococcus sp.): >64 µg/mL
- MIC Enterococccus faecalis (GC 4552) (Enterococcus sp.): >64 µg/mL
- MIC Enterococccus faecalis (GC 4553) (Enterococcus sp.): >64 µg/mL
- MIC Enterococccus faecalis (GC 4554) (Enterococcus sp.): >64 µg/mL
- MIC Enterococccus faecalis (GC 6189) (Enterococcus sp.): 64 µg/mL (≈ 45.7 µM)
- MIC Enterococccus faecium (GC 2243) (Enterococcus sp.): >64 µg/mL
- MIC Enterococccus faecium (GC 4556) (Enterococcus sp.): 64 µg/mL (≈ 45.7 µM)
- MIC Enterococccus faecium (GC 4557) (Enterococcus sp.): 8 µg/mL (≈ 5.72 µM)
- MIC Enterococcus faecalis (GC 2242) (Enterococcus sp.): 64 µg/mL (≈ 45.7 µM)
- MIC Escherichia coli (ATCC 25922) (Escherichia coli): >64 µg/mL
- MIC Escherichia coli (GC 4559) (Escherichia coli): >64 µg/mL
- MIC Escherichia coli (GC 4560) (Escherichia coli): 4 µg/mL (≈ 2.86 µM)
- MIC Coagulase Negative Staphylococcus (GC 4547) (Staphylococcus sp.; [1]): 8 µg/mL (≈ 5.72 µM)
- MIC Coagulase Negative Staphylococcus (GC 4548) (Staphylococcus sp.; [1]): 8 µg/mL (≈ 5.72 µM)
- MIC Coagulase Negative Staphylococcus (GC 4549) (Staphylococcus sp.; [1]): 4 µg/mL (≈ 2.86 µM)
- MIC Coagulase Negative Staphylococcus (GC 4551) (Staphylococcus sp.; [1]): 32 µg/mL (≈ 22.9 µM)
- MIC Coagulase Negative Staphylococcus (GC 6257) (Staphylococcus sp.; [1]): 4 µg/mL (≈ 2.86 µM)
- MIC Staphylococcus aureus-SMITH (GC 4543) (Staphylococcus sp.; [1]): 16 µg/mL (≈ 11.4 µM)
- MIC Staphylococcus haemolyticus (GC 4546) (Staphylococcus sp.; [1]): 16 µg/mL (≈ 11.4 µM)
- MIC Staphylococcus aureus (ATCC 29213) (Staphylococcus sp.): 16 µg/mL (≈ 11.4 µM)
- MIC Staphylococcus aureus (ATCC 29213) (Staphylococcus sp.; [2]): 16 µg/mL (≈ 11.4 µM)
- MIC Staphylococcus aureus (GC 1131) (Staphylococcus sp.): 16 µg/mL (≈ 11.4 µM)
- MIC Staphylococcus aureus (GC 1131) (Staphylococcus sp.; [2]): 16 µg/mL (≈ 11.4 µM)
- MIC Staphylococcus aureus (GC 3051) (Staphylococcus sp.): 16 µg/mL (≈ 11.4 µM)
- MIC Staphylococcus aureus (GC 3051) (Staphylococcus sp.; [2]): 16 µg/mL (≈ 11.4 µM)
- MIC Staphylococcus aureus (GC 3053) (Staphylococcus sp.): 32 µg/mL (≈ 22.9 µM)
- MIC Staphylococcus aureus (GC 3053) (Staphylococcus sp.; [2]): 32 µg/mL (≈ 22.9 µM)
- MIC Staphylococcus aureus (GC 4541) (Staphylococcus sp.): 8 µg/mL (≈ 5.72 µM)
- MIC Staphylococcus aureus (GC 4541) (Staphylococcus sp.; [2]): 8 µg/mL (≈ 5.72 µM)
- MIC Staphylococcus aureus (GC 4542) (Staphylococcus sp.): 16 µg/mL (≈ 11.4 µM)
- MIC Staphylococcus aureus (GC 4542) (Staphylococcus sp.; [2]): 16 µg/mL (≈ 11.4 µM)
- MIC Staphylococcus aureus-SMITH (GC 4543) (Staphylococcus sp.; strain GC 4543, broth dilution, 18 hours at 35° C.): 16 µg/mL (≈ 11.4 µM)
- MIC Staphylococcus aureus (GC 4544) (Staphylococcus sp.): 16 µg/mL (≈ 11.4 µM)
- MIC Staphylococcus aureus (GC 4544) (Staphylococcus sp.; [2]): 16 µg/mL (≈ 11.4 µM)
- MIC Staphylococcus aureus (GC 4545) (Staphylococcus sp.): 16 µg/mL (≈ 11.4 µM)
- MIC Staphylococcus aureus (GC 4545) (Staphylococcus sp.; [2]): 16 µg/mL (≈ 11.4 µM)
- MIC Staphylococcus haemolyticus (GC 4546) (Staphylococcus sp.; strain GC 4546, broth dilution, 18 hours at 35° C.): 16 µg/mL (≈ 11.4 µM)
- MIC Coagulase Negative Staphylococcus (GC 4547) (Staphylococcus sp.; strain GC 4547, broth dilution, 18 hours at 35° C.): 8 µg/mL (≈ 5.72 µM)
- MIC Coagulase Negative Staphylococcus (GC 4548) (Staphylococcus sp.; strain GC 4548, broth dilution, 18 hours at 35° C.): 8 µg/mL (≈ 5.72 µM)
- MIC Coagulase Negative Staphylococcus (GC 4549) (Staphylococcus sp.; strain GC 4549, broth dilution, 18 hours at 35° C.): 4 µg/mL (≈ 2.86 µM)
- MIC Coagulase Negative Staphylococcus (GC 4551) (Staphylococcus sp.; strain GC 4551, broth dilution, 18 hours at 35° C.): 32 µg/mL (≈ 22.9 µM)
- MIC Coagulase Negative Staphylococcus (GC 6257) (Staphylococcus sp.; strain GC 6257, broth dilution, 18 hours at 35° C.): 4 µg/mL (≈ 2.86 µM)
- MIC Streptococcus agalactiae (GC 4564) (Streptococcus sp.): 8 µg/mL (≈ 5.72 µM)
- MIC Streptococcus pneumoniae (GC 1894) (Streptococcus sp.): 1 µg/mL (≈ 0.715 µM)
- MIC Streptococcus pneumoniae (GC 4565) (Streptococcus sp.): 4 µg/mL (≈ 2.86 µM)
- MIC Streptococcus pneumonine (ATCC 6301) (Streptococcus sp.): 2 µg/mL (≈ 1.43 µM)
- MIC Streptococcus pyogenes (GC 4563) (Streptococcus sp.): 8 µg/mL (≈ 5.72 µM)
